From ChEMBL document CHEMBL5143557, “Synthesis and biological evaluation of 3β-O-neoglycosides of caudatin and its analogues as potential anticancer agents” (Bioorg Med Chem, 2022)

Legend:
HCT-116 = assay: Antiproliferative activity against human HCT-116 cells after 48 hrs by MTT assay; assay type: functional, cell-based; conditions: HCT-116, 48 h
MCF7 = assay: Antiproliferative activity against human MCF7 cells after 48 hrs by MTT assay; assay type: functional, cell-based; conditions: MCF7, 48 h
HepG2 [1] = assay: Antiproliferative activity against human HepG2 cells after 48 hrs by MTT assay; assay type: functional, cell-based; conditions: HepG2, 48 h
HeLa = assay: Antiproliferative activity against human HeLa cells after 48 hrs by MTT assay; assay type: functional, cell-based
HepG2 [2] = assay: Induction of apoptosis in human HepG2 cells assessed as live cells at 10 uM measured after 48 hrs by annexin-V and PI staining based flow cytometry (reference value: 91%); assay type: functional
HepG2 [3] = assay: Induction of apoptosis in human HepG2 cells assessed as late apoptotic cells at 10 uM measured after 48 hrs by annexin-V and PI staining based flow cytometry (reference value: 4.52%); assay type: functional
HepG2 [4] = assay: Induction of apoptosis in human HepG2 cells assessed as late apoptotic cells at 20 uM measured after 48 hrs by annexin-V and PI staining based flow cytometry (reference value: 4.52%); assay type: functional
HepG2 [5] = assay: Induction of apoptosis in human HepG2 cells assessed as live cells at 20 uM measured after 48 hrs by annexin-V and PI staining based flow cytometry (reference value: 91%); assay type: functional
HepG2 [6] = assay: Cell cycle arrest in human HepG2 cells assessed as number of cells at G2 phase at 10 uM after 48 hrs by flow cytometry (reference value: 16.28%); assay type: functional
HepG2 [7] = assay: Induction of apoptosis in human HepG2 cells assessed as early apoptotic cells at 20 uM measured after 48 hrs by annexin-V and PI staining based flow cytometry (reference value: 4.11%); assay type: functional
HepG2 [8] = assay: Cell cycle arrest in human HepG2 cells assessed as number of cells at G1 phase at 10 uM after 48 hrs by flow cytometry (reference value: 57.68%); assay type: functional
HepG2 [9] = assay: Cell cycle arrest in human HepG2 cells assessed as number of cells at S phase at 10 uM after 48 hrs by flow cytometry (reference value: 24.31%); assay type: functional
HepG2 [10] = assay: Induction of apoptosis in human HepG2 cells assessed as live cells at 5 uM measured after 48 hrs by annexin-V and PI staining based flow cytometry (reference value: 91%); assay type: functional
HepG2 [11] = assay: Induction of apoptosis in human HepG2 cells assessed as early apoptotic cells at 10 uM measured after 48 hrs by annexin-V and PI staining based flow cytometry (reference value: 4.11%); assay type: functional
HepG2 [12] = assay: Cell cycle arrest in human HepG2 cells assessed as number of cells at S phase at 20 uM after 48 hrs by flow cytometry (reference value: 24.31%); assay type: functional
HepG2 [13] = assay: Induction of apoptosis in human HepG2 cells assessed as necrotic cells at 10 uM measured after 48 hrs by annexin-V and PI staining based flow cytometry (reference value: 0.363%); assay type: functional
HepG2 [14] = assay: Induction of apoptosis in human HepG2 cells assessed as necrotic cells at 20 uM measured after 48 hrs by annexin-V and PI staining based flow cytometry (reference value: 0.363%); assay type: functional
HepG2 [15] = assay: Cell cycle arrest in human HepG2 cells assessed as number of cells at G1 phase at 5 uM after 48 hrs by flow cytometry (reference value: 57.68%); assay type: functional
HepG2 [16] = assay: Induction of apoptosis in human HepG2 cells assessed as late apoptotic cells at 5 uM measured after 48 hrs by annexin-V and PI staining based flow cytometry (reference value: 4.52%); assay type: functional
HepG2 [17] = assay: Cell cycle arrest in human HepG2 cells assessed as number of cells at G1 phase at 20 uM after 48 hrs by flow cytometry (reference value: 57.68%); assay type: functional
HepG2 [18] = assay: Induction of apoptosis in human HepG2 cells assessed as necrotic cells at 5 uM measured after 48 hrs by annexin-V and PI staining based flow cytometry (reference value: 0.363%); assay type: functional
HepG2 [19] = assay: Induction of apoptosis in human HepG2 cells assessed as early apoptotic cells at 5 uM measured after 48 hrs by annexin-V and PI staining based flow cytometry (reference value: 4.11%); assay type: functional
HepG2 [20] = assay: Cell cycle arrest in human HepG2 cells assessed as number of cells at G2 phase at 5 uM after 48 hrs by flow cytometry (reference value: 16.28%); assay type: functional
HepG2 [21] = assay: Cell cycle arrest in human HepG2 cells assessed as number of cells at S phase at 5 uM after 48 hrs by flow cytometry (reference value: 24.31%); assay type: functional
HepG2 [22] = assay: Cell cycle arrest in human HepG2 cells assessed as number of cells at G2 phase at 20 uM after 48 hrs by flow cytometry (reference value: 16.28%); assay type: functional

## CC(=O)O[C@@H]1[C@@H](OC(C)=O)[C@H](C)O[C@@H](O[C@H]2CC[C@@]3(C)C(=CC[C@]4(O)[C@@H]3C[C@@H](OC(=O)/C=C/c3ccccc3)[C@@]3(C)[C@]4(O)CC[C@@]3(O)[C@H](C)OC(=O)c3cccnc3)C2)[C@@H]1OC(C)=O
HCT-116
  IC50: 71.4 µM
MCF7
  IC50: > 100 µM
HepG2 [1]
  IC50: 69.1 µM
HeLa
  IC50: > 100 µM

## CC(=O)OC[C@@H]1O[C@H](O[C@H]2CC[C@@]3(C)C(=CC[C@]4(O)[C@@H]3C[C@@H](OC(=O)/C=C(\C)C(C)C)[C@@]3(C)[C@]4(O)CC[C@@]3(O)C(C)=O)C2)[C@@H](OC(C)=O)[C@H](OC(C)=O)[C@H]1OC(C)=O
HepG2 [2]
  Activity: 57%
HepG2 [3]
  Activity: 7.26%
HepG2 [4]
  Activity: 5.34%
HepG2 [5]
  Activity: 18%
HepG2 [6]
  Activity: 15.75%
HepG2 [7]
  Activity: 76.5%
HepG2 [8]
  Activity: 46.89%
HepG2 [9]
  Activity: 34.6%
HCT-116
  IC50: 5.64 µM
HepG2 [10]
  Activity: 83.5%
HepG2 [11]
  Activity: 35.6%
HepG2 [12]
  Activity: 38.82%
HepG2 [13]
  Activity: 0.096%
HepG2 [14]
  Activity: 0.184%
HepG2 [15]
  Activity: 51.38%
HepG2 [16]
  Activity: 5.07%
MCF7
  IC50: 9.04 µM
HepG2 [17]
  Activity: 41.76%
HepG2 [1]
  IC50: 3.11 µM
HepG2 [18]
  Activity: 0.068%
HepG2 [19]
  Activity: 11.3%
HepG2 [20]
  Activity: 16.95%
HepG2 [21]
  Activity: 28.72%
HeLa
  IC50: 7.6 µM
HepG2 [22]
  Activity: 15.99%

## CC(=O)[C@]1(O)CC[C@@]2(O)[C@]1(C)[C@H](OC(=O)/C=C(\C)C(C)C)C[C@@H]1[C@@]3(C)CC[C@H](O)CC3=CC[C@]12O [CAUDATIN]
HCT-116
  IC50: 64.1 µM
MCF7
  IC50: > 100 µM
HepG2 [1]
  IC50: 65.9 µM
HeLa
  IC50: > 100 µM

## C[C@H](OC(=O)c1cccnc1)[C@]1(O)CC[C@@]2(O)[C@]1(C)[C@H](OC(=O)/C=C/c1ccccc1)C[C@@H]1[C@@]3(C)CC[C@H](O)CC3=CC[C@]12O [GAGAMININ]
HCT-116
  IC50: 69.9 µM
MCF7
  IC50: > 100 µM
HepG2 [1]
  IC50: 65 µM
HeLa
  IC50: 96.4 µM
